Source: patent US11331299B2, “Medicinal use of serrulatane diterpenes” (The University of Sydney, priority 2016, dated 2022)
Read-outs that look alike come from different tables or passages of the source.

Legend:
Myeloperoxidase = molecular target: T1, Myeloperoxidase (Homo sapiens, UniProt P05164); experiment: Myeloperoxidase; format: biochemical
T1 construct: Human PMN leukocytes; from tissue; host or cells: human PMN leukocytes
T1 sequence (P05164 49-745): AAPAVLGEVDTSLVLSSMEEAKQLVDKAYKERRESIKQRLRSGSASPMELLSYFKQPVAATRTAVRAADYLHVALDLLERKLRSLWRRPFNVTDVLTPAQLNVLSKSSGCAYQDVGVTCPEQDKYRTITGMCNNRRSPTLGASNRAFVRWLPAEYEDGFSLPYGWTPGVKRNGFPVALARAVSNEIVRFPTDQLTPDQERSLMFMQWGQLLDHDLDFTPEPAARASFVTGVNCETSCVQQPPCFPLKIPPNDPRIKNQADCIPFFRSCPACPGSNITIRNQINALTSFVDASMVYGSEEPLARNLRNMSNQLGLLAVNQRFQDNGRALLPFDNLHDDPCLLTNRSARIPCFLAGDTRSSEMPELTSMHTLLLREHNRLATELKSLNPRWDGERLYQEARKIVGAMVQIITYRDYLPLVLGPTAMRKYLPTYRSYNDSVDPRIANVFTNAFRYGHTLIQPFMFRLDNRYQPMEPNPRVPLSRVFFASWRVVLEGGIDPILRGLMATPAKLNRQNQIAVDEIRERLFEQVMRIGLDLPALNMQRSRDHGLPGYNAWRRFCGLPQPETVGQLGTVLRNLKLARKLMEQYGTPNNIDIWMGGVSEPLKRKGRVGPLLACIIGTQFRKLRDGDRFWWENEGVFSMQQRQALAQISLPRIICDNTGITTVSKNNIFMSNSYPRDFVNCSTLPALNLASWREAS
Experimental: (§1) The in vitro pharmacological studies were conducted by Eurofins PanLab (Taiwan) using the parameters shown in Table 13 with respect to appropriate literature references.

Monoamine Oxidase MAO-B = molecular target: T2, Monoamine Oxidase MAO-B (Homo sapiens, UniProt P27338); experiment: Monoamine Oxidase MAO-B; format: biochemical; conditions: for remaining activity at 10 µM: assay year 2015, read-out: % Control Response
T2 construct: host or cells: Insect Hi5 cells
T2 sequence (P27338 1-520): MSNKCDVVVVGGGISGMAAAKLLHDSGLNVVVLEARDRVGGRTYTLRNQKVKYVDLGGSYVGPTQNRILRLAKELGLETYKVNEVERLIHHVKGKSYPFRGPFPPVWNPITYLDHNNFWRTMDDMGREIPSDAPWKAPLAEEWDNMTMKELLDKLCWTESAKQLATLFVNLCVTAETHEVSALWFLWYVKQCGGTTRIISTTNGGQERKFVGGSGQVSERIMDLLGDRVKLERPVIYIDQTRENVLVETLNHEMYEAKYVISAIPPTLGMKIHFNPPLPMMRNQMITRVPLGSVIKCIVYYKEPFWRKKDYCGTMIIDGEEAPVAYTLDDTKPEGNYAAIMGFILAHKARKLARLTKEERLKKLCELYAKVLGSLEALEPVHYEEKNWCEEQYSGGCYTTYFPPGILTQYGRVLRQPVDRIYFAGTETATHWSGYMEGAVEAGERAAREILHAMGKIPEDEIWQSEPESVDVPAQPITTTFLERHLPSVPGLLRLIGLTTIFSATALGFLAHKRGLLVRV
Experimental: as §1

Hs 729 = experiment: OncoPanel cell proliferation assay (10-day); format: cell-based, human; conditions: for EC50 / GI50 / IC50: Homo sapiens, Hs 729, Soft Tissue - Sarcoma; for EC50: read-out: Cell Count EC50; for GI50: read-out: Cell Count GI50; for IC50: read-out: Cell Count IC50
JMJD2E (h) = molecular target: T3, JMJD2E (h) (Homo sapiens, UniProt B2RXH2); experiment: Epigenetic enzyme assay, Demethylases (KDMs); format: biochemical; conditions: for inhibition at 10 µM: read-out: % Inhibition of Control Values
T3 sequence (B2RXH2 1-506): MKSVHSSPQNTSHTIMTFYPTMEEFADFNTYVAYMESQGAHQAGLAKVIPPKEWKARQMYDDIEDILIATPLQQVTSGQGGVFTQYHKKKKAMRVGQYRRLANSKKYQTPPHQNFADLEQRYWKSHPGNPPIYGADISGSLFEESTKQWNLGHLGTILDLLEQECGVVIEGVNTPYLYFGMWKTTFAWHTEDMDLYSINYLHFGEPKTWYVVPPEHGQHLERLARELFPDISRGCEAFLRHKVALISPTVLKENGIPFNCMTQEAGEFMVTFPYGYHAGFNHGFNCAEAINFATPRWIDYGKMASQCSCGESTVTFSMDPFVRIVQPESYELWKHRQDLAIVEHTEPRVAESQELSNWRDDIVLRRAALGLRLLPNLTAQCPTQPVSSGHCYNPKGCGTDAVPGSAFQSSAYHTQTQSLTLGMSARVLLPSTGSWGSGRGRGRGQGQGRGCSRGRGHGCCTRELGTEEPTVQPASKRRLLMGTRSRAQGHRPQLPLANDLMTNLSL

[1] = assay year 2014, read-out: % Control Response
[2] = assay year 2015, read-out: % Control Response

Row | Structure (SMILES) | remaining activity at 10 µM (Myeloperoxidase; [1]) [%] | remaining activity at 10 µM (Myeloperoxidase; [2]) [%] | remaining activity at 10 µM (Monoamine Oxidase MAO-B) [%] | EC50 (Hs 729) [µM] | GI50 (Hs 729) [µM] | IC50 (Hs 729) [µM] | inhibition at 10 µM (JMJD2E (h); 10 μM) [%] | further results
1 | CC(C)=CCC[C@H](CO)[C@@H]1CC[C@@H](C)c2c1cc(C)c(O)c2O [Compound 1, 7,8,18-trihydroxyserrulat-14-ene] | 52 | 27 | 75 | 2.77 | 2.67 | 2.78 | 65 | % Control Response (Myeloperoxidase; 10 μM, assay year 2014): inhibited the activity; % Control Response (Monoamine Oxidase MAO-B; 10 μM, assay year 2015): potent inhibitor; Relative cell count (%) Mean (Hs 729; Hs 729, 3.00E+00 microM): 46.0%; Relative cell count (%) Mean (Hs 729; Hs 729, 3.00E+01 microM): 1.0%; Relative cell count (%) Mean (Hs 729; Hs 729, 3.01E−01 microM): 99.4%; Relative cell count (%) Mean (Hs 729; Hs 729, 3.01E−02 microM): 107.0%; Relative cell count (%) Mean (Hs 729; Hs 729, 3.02E−03 microM): 103.0%; Relative cell count (%) Mean (Hs 729; Hs 729, 9.49E+00 microM): 3.2%; Relative cell count (%) Mean (Hs 729; Hs 729, 9.51E−01 microM): 98.9%; Relative cell count (%) Mean (Hs 729; Hs 729, 9.52E−02 microM): 99.9%; Relative cell count (%) Mean (Hs 729; Hs 729, 9.53E−03 microM): 108.7%; Relative cell count (%) Mean (Hs 729; Hs 729, 9.55E−04 microM): 100.6%; % Inhibition of Control Values (JMJD2E (h); 10 μM): significant inhibitory activity; IC50 (JMJD2E (h); Table 11, inhibition/concentration-response curve): 4.7 µM
2 | CC(C)=CCC[C@@H]1COc2c(C)cc(O)c3c2[C@H]1CC[C@H]3C [Compound 3, 5,18-epoxy-8-hydroxyserrulat-14-ene] | – | -7 | 18 | – | – | – | 6 | –
3 | CC(C)=CCC[C@H](C)[C@@H]1CC[C@@H](C)c2c1cc(C)c(O)c2O [Compound 4, 7,8-dihydroxyserrulat-14-ene] | – | – | – | 11.9 | 11.6 | 11.9 | – | –
4 | CC(C)=CCC[C@@H]1C(O)Oc2c(C)cc(O)c3c2[C@H]1CC[C@H]3C (stereo partly shown) [Compound 2, 5,18-epoxyserrulat-14-en-8,18-diol] | 5 | 1 | 39 | 23.3 | 21.8 | 23.3 | 10 | –
